The source of these data is patent US10836769B2, “Substituted pyrrolizine compounds and uses thereof” (Gilead Sciences, Inc., priority 2018, dated 2020).

Converted amounts (≈) assume the structure as drawn. Read-outs that look alike come from different tables or passages of the source.

A word on the EC50: it is the concentration needed to bring the measured effect to its halfway point. Broadly, the solubility (kinetic) is the concentration staying in solution when a stock, usually in DMSO, is diluted into the medium.

For one series, the system named is HBV. Description: HBV DNA Quantification Assay. The format is cell-based. How it is done:
A HepG2 cell line overexpressing the HBV virus attachment receptor sodium-taurocholate cotransporting polypeptide (NTCP) was grown to confluency in DMEM growth medium, Dulbecco's Modified Eagle Medium without sodium pyruvate (Life Technologies, Rockville, Md.) supplemented with 10% FBS (Thermo Scientific, Waltham, Md.), 1% penicillin/streptomycin (Life Technologies, Rockville, Md.) and 2 mM L-glutamine (Life Technologies, Rockville, Md.) in T175 flasks. Cells were infected with HBV AD38 viral particles (Texcell, Frederick, USA) at 4000 genome equivalents per cell. After allowing viral infection to take place for 4 days, the infected cells were harvested from the flasks by trypsinization, washed twice with OptiMEM (Life Technologies, Rockville, Md.) and re-suspended in DMEM containing 2% FBS and 1% DMSO at a density of 0.25E6 cells/ml. Infected cells were seeded on 384 well collagen coated plates (Greiner, Austria) at a density of 20,000 cells/well containing serially diluted compounds of the present disclosure or DMSO (0.5%) in a final volume of 80 μl. The assay plates were incubated for a period of 5 days and the antiviral activity of the test compounds were assayed by detecting the presence of HBV DNA in the culture supernatant using the QuantiGene™ 2.0 nucleic acid quantification kit (Affymetrix, Santa Clara, Calif.).
The culture supernatant was harvested and treated with lysis buffer containing Proteinase K (Affymetrix, Santa Clara, Calif.). The supernatant was incubated with HBV viral DNA specific probes (Affymetrix, Santa Clara, Calif.) for 30 minutes at 55° C. This was followed by addition of 0.2M NaOH for 30 minutes at room temperature to denature the DNA, followed by addition of Neutralization buffer (Affymetrix, Santa Clara, Calif.). The resulting lysed and neutralized supernatant was then added to QuantiGene™ 2.0 384 well plates coated with capture oligonucleotides and incubated overnight at 55° C. The HBV specific probe set consists of Capture Extender oligonucleotides (CE's) and blocking probes. Following the overnight incubation, the wells were incubated for one hour sequentially with a Pre-Amplifier, Amplifier and Labeled probes conjugated to alkaline phosphatase with a wash step between incubations. After the final wash step, the alkaline phosphatase substrate (Luminol APS5) was added and the resulting luminescence signal was read in an EnVision Multilabel Plate Reader (PerkinElmer, Santa Clara, Calif.). The EC50 values were calculated from the fit of the dose-response curves to a four-parameter equation. All EC50 values represent geometric mean values of a minimum of four determinations.

A further series is described as follows: Kinetic Solubility. In kind it is physicochemical. Conditions: 0.2 to 100 μM, BD Gentest Solubility Scanner. How it is done:
The 10 mM DMSO stock solution of the test compound is serially diluted into a 96-well “DMSO stock dilution plate”. Then Pipette 2 μL from the DMSO stock dilution plate into the “Sample plate” and dilute with 198 µL of the assay media to generate the final concentrations of the test compound ranging from 0.2 to 100 μM. The “Sample plate” is run on a BD Gentest Solubility Scanner.

The mark [1] stands for this setting: Hepatitis B virus, 120 h, HepG2 cell line overexpressing NTCP infected with HBV AD38 viral particles, HBV DNA in culture supernatant after 5 days, geometric mean of a minimum of four determinations, read-out: EC50.
Setting [2] is: aqueous buffer, kinetic from dmso stock, pH = 7, read-out: Kinetic Solubility at pH = 7.
The mark [3] stands for this setting: simulated gastric fluid, kinetic from dmso stock, pH = 1, read-out: Kinetic Solubility at pH = 1.
Where [4] appears, read: assay media at pH 1 (composition not named), simulated gastric fluid, kinetic from dmso stock, pH = 1, read-out: Kinetic Solubility at pH = 1.
The mark [5] stands for this setting: assay media at pH 7 (composition not named), aqueous buffer, kinetic from dmso stock, pH = 7, read-out: Kinetic Solubility at pH = 7.

As to `Cc1c(C(=O)Nc2ccc(F)c(F)c2)c2n(c1C(=O)C(=O)NC1(CO)CC(F)(F)C1)CCC2` [Example 19, 5-(2-((3,3-difluoro-1-(hydroxymethyl)cyclobutyl)amino)-2-oxoacetyl)-N-(3,4-difluorophenyl)-6-methyl-2,3-dihydro-1H-pyrrolizine-7-carboxamide], the concentration giving a half-maximal response (EC50) in the series on HBV (setting [1]) was determined as 0.0202 µM. Also, the figures for the solubility (kinetic) in “Kinetic Solubility” (setting [2]) and in “Kinetic Solubility” (setting [3]) were 62 µM (≈ 29 µg/mL) and 68.7 µM (≈ 32.1 µg/mL), respectively.

Regarding `Cc1c(C(=O)Nc2ccc(F)c(F)c2)c2n(c1C(=O)C(=O)NC1(c3nncs3)CC(F)(F)C1)CCC2` [Example 3, 5-(2-((3,3-difluoro-1-(1,3,4-thiadiazol-2-yl)cyclobutyl)amino)-2-oxoacetyl)-N-(3,4-difluorophenyl)-6-methyl-2,3-dihydro-1H-pyrrolizine-7-carboxamide], in the series on HBV (setting [1]), the EC50 is 0.0023 µM. In addition, the solubility (kinetic) in the series “Kinetic Solubility” (setting [2]) is 1.1 µM (≈ 0.574 µg/mL); in “Kinetic Solubility” (setting [3]), 1.5 µM (≈ 0.782 µg/mL).

For the molecule `Cc1c(C(=O)Nc2ccc(F)c(F)c2)c2n(c1C(=O)C(=O)NC1(c3cnn[nH]3)CC(F)(F)C1)C[C@H]1C[C@@H]21` [Example 25, (1aS,6bR)-4-(2-((3,3-difluoro-1-(1H-1,2,3-triazol-5-yl)cyclobutyl)amino)-2-oxoacetyl)-N-(3,4-difluorophenyl)-5-methyl-1,1a,2,6b-tetrahydrocyclopropa[a]pyrrolizine-6-carboxamide], in the series with HBV (setting [1]), the concentration for a half-maximal effect (EC50) was determined as 0.0019 µM. In addition, the solubility (kinetic) in “Kinetic Solubility” (setting [2]) is 65 µM (≈ 33.6 µg/mL); in the series “Kinetic Solubility” (setting [3]) it was 72.6 µM (≈ 37.5 µg/mL).

For `CNC(=O)C1(NC(=O)C(=O)c2c(C)c(C(=O)Nc3ccc(F)c(F)c3)c3n2C[C@H]2C[C@@H]32)CC(F)(F)C1` [Example 26, (1aS,6bR)-4-(2-((3,3-difluoro-1-(methylcarbamoyl)cyclobutyl)amino)-2-oxoacetyl)-N-(3,4-difluorophenyl)-5-methyl-1,1a,2,6b-tetrahydrocyclopropa[a]pyrrolizine-6-carboxamide], the concentration for a half-maximal effect (EC50) in the series on HBV (setting [1]) came out at 0.0206 µM. Besides, the solubility (kinetic) in the series “Kinetic Solubility” (setting [2]) and in “Kinetic Solubility” (setting [3]) was > 100 µM throughout.

In the case of `Cc1c(C(=O)Nc2cc(F)c(F)c(F)c2)c2n(c1C(=O)C(=O)NC1(c3cnn[nH]3)CC(F)(F)C1)CCC2` [Example 18], the EC50 in the series with HBV (setting [1]) stood at 0.0024 µM. In addition, the kinetic solubility in the series “Kinetic Solubility” (setting [2]) was 52.7 µM (≈ 27.5 µg/mL); in the series “Kinetic Solubility” (setting [3]), 50 µM (≈ 26.1 µg/mL).

On to `Cc1c(C(=O)Nc2ccc(F)c(C(F)F)c2)c2n(c1C(=O)C(=O)NC1(c3nncs3)CC1)CCC2` [Example 31], for which, in the series on HBV (setting [1]), the EC50 was determined as 0.0165 µM. Besides, the values for the kinetic solubility in “Kinetic Solubility” (setting [2]) and in “Kinetic Solubility” (setting [3]) were 6.3 µM (≈ 3.17 µg/mL) and 23.1 µM (≈ 11.6 µg/mL), respectively.

`CNC(=O)C1(NC(=O)C(=O)c2c(C)c(C(=O)Nc3cc(F)c(F)c(F)c3)c3n2CCC3)CC(F)(F)C1` [Example 42, 5-(2-((3,3-difluoro-1-(methylcarbamoyl)cyclobutyl)amino)-2-oxoacetyl)-6-methyl-N-(3,4,5-trifluorophenyl)-2,3-dihydro-1H-pyrrolizine-7-carboxamide]: the concentration for a half-maximal effect (EC50) with HBV (setting [1]) turned out to be 0.0127 µM. In addition, the figures for the solubility (kinetic) in the series “Kinetic Solubility” (setting [2]) and in “Kinetic Solubility” (setting [3]) were 29.6 µM (≈ 15.2 µg/mL) and 37.5 µM (≈ 19.2 µg/mL), respectively.

For `Cc1c(C(=O)Nc2ccc(F)cc2)c2n(c1C(=O)C(=O)NC1(c3cn(C)nn3)CC(F)(F)C1)CCC2` [Example 10], the 50% effective concentration (EC50) in the series with HBV (HepG2 cell line overexpressing NTCP infected with HBV AD38 viral particles, HBV DNA in culture supernatant after 5 days, geometric mean of a minimum of four determinations, read-out: EC50) amounted to 0.0332 µM. In addition, the solubility (kinetic) came out at 1.4 µM (≈ 0.701 µg/mL) in “Kinetic Solubility” (pH = 1, read-out: Kinetic Solubility at pH = 1) and 52.8 µM (≈ 26.4 µg/mL) in “Kinetic Solubility” (pH = 7, read-out: Kinetic Solubility at pH = 7).

`CNC(=O)C1(NC(=O)C(=O)c2c(C)c(C(=O)Nc3ccc(F)c(F)c3)c3n2[C@@H]2C[C@@H]2C3)CC(F)(F)C1` [Example 33]: the EC50 with HBV (setting [1]) turned out to be 0.0936 µM. Moreover, the solubility (kinetic) in the series “Kinetic Solubility” (setting [2]) was 92.3 µM (≈ 46.7 µg/mL); in the series “Kinetic Solubility” (setting [3]) it was 92.1 µM (≈ 46.6 µg/mL).

Consider `CNC(=O)C1(NC(=O)C(=O)c2c(C)c(C(=O)Nc3ccc(F)cc3)c3n2CCC3)CC(F)(F)C1` [Example 45, 5-(2-((3,3-difluoro-1-(methylcarbamoyl)cyclobutyl)amino)-2-oxoacetyl)-N-(4-fluorophenyl)-6-methyl-2,3-dihydro-1H-pyrrolizine-7-carboxamide], for which the EC50 in the series on HBV (setting [1]) was determined as 0.0559 µM. Moreover, the kinetic solubility in the series “Kinetic Solubility” (setting [2]) was 95.3 µM (≈ 45.4 µg/mL); in the series “Kinetic Solubility” (setting [3]), 99.9 µM (≈ 47.6 µg/mL).

Regarding `Cc1c(C(=O)Nc2ccc(F)c(F)c2)c2n(c1C(=O)C(=O)NC1(c3cnn[nH]3)CC(F)(F)C1)[C@@H]1C[C@@H]1C2` [Example 34, (1aR,6aR)-3-(2-((3,3-difluoro-1-(1H-1,2,3-triazol-5-yl)cyclobutyl)amino)-2-oxoacetyl)-N-(3,4-difluorophenyl)-4-methyl-1,1a,6,6a-tetrahydrocyclopropa[a]pyrrolizine-5-carboxamide], the EC50 in the series with HBV (setting [1]) amounted to 0.0144 µM. Moreover, the figures for the solubility (kinetic) in “Kinetic Solubility” (setting [4]) and in the series “Kinetic Solubility” (setting [5]) were 51.7 µM (≈ 26.7 µg/mL) and 52.3 µM (≈ 27 µg/mL), respectively.

For `CNC(=O)C1(NC(=O)C(=O)c2c(C)c(C(=O)Nc3ccnc(C(F)F)c3F)c3n2CCC3)CC(F)(F)C1` [Example 20, 5-(2-((3,3-difluoro-1-(methylcarbamoyl)cyclobutyl)amino)-2-oxoacetyl)-N-(2-(difluoromethyl)-3-fluoropyridin-4-yl)-6-methyl-2,3-dihydro-1H-pyrrolizine-7-carboxamide], in the series on HBV (setting [1]), the 50% effective concentration (EC50) worked out at 0.503 µM. In addition, the solubility (kinetic) in “Kinetic Solubility” (setting [2]) is 28 µM (≈ 14.8 µg/mL); in “Kinetic Solubility” (setting [3]), 26.3 µM (≈ 13.9 µg/mL).

`Cc1c(C(=O)Nc2cc(F)c(F)c(F)c2)c2n(c1C(=O)C(=O)NC1(c3nncs3)CC1)CCC2` [Example 29, 5-(2-((1-(1,3,4-thiadiazol-2-yl)cyclopropyl)amino)-2-oxoacetyl)-6-methyl-N-(3,4,5-trifluorophenyl)-2,3-dihydro-1H-pyrrolizine-7-carboxamide]: the EC50 in the series on HBV (setting [1]) is 0.0143 µM. Also, the results for the kinetic solubility in “Kinetic Solubility” (setting [2]) and in the series “Kinetic Solubility” (setting [3]) were 4.5 µM (≈ 2.2 µg/mL) and 88.7 µM (≈ 43.4 µg/mL), respectively.

Turning to `Cc1c(C(=O)Nc2ccc(F)c(Cl)c2)c2n(c1C(=O)C(=O)NC1(c3cnn[nH]3)CC(F)(F)C1)CCC2` [Example 16, N-(3-chloro-4-fluorophenyl)-5-(2-((3,3-difluoro-1-(1H-1,2,3-triazol-4-yl)cyclobutyl)amino)-2-oxoacetyl)-6-methyl-2,3-dihydro-1H-pyrrolizine-7-carboxamide], the 50% effective concentration (EC50) in the series on HBV (setting [1]) is 0.0018 µM. Also, the kinetic solubility in “Kinetic Solubility” (setting [2]) is 2.8 µM (≈ 1.46 µg/mL); in the series “Kinetic Solubility” (setting [3]), 16.5 µM (≈ 8.59 µg/mL).

With `Cc1c(C(=O)Nc2ccc(F)c(C(F)F)c2)c2n(c1C(=O)C(=O)NC1(c3c[nH]nn3)CC(F)(F)C1)CCC2` [Example 37, 5-(2-((3,3-Difluoro-1-(1H-1,2,3-triazol-4-yl)cyclobutyl)amino)-2-oxoacetyl)-N-(3-(difluoromethyl)-4-fluorophenyl)-6-methyl-2,3-dihydro-1H-pyrrolizine-7-carboxamide], the 50% effective concentration (EC50) with HBV (setting [1]) stood at 0.0036 µM. Besides, the solubility (kinetic) in the series “Kinetic Solubility” (setting [2]) is 5.2 µM (≈ 2.79 µg/mL); in “Kinetic Solubility” (setting [3]), 7.1 µM (≈ 3.81 µg/mL).

The molecule `Cc1c(C(=O)Nc2ccc(F)c(F)c2)c2n(c1C(=O)C(=O)NC1(c3c[nH]nn3)COC1)CCC2` [Example 36, 5-(2-((3-(1H-1,2,3-triazol-4-v)oxetan-3-yl)amino)-2-oxoacetyl)-N-(3,4-difluorophenyl)-6-methyl-2,3-dihydro-1H-pyrrolizine-7-carboxamide] displayed a 50% effective concentration (EC50) in the series on HBV (Hepatitis B virus, HepG2, 120 h) of 0.0214 µM. Besides, the values for the solubility (kinetic) in “Kinetic Solubility” (setting [4]) and in the series “Kinetic Solubility” (setting [5]) were 63 µM (≈ 29.6 µg/mL) and 59.9 µM (≈ 28.2 µg/mL), respectively.

For `Cc1c(C(=O)Nc2ccc(F)c(F)c2)c2n(c1C(=O)C(=O)NC1(c3c[nH]nn3)CC(F)(F)C1)CCC2` [Example 39], in the series with HBV (setting [1]), the concentration giving a half-maximal response (EC50) is 0.0029 µM. For the same molecule, the solubility (kinetic) in the series “Kinetic Solubility” (setting [2]) is 66.8 µM (≈ 33.7 µg/mL); in “Kinetic Solubility” (setting [3]) it was 66 µM (≈ 33.3 µg/mL).
